According to article PMC5971063 (ACS infectious diseases, 2017):
≈ marks a conversion by molar mass, not a printed value.

Legend:
[1] = system: S. epidermidis ATCC 12384; assay: Single-point antibacterial screen
MRSA ATCC 33591 [2] = assay: Single-point antibacterial screen
E. cloacae ATCC 13047 [3] = assay: Single-point antibacterial screen
MRSA A960649 NR-45914 [4] = assay: Single-point antibacterial screen
P. mirabilis HM-752 [5] = assay: Single-point antibacterial screen
S. marcescens ATCC 13880 [6] = assay: Single-point antibacterial screen
[7] = system: L. monocytogenes ATCC 19115; assay: Single-point antibacterial screen
C. freundii 4747 CFAA [8] = assay: Single-point antibacterial screen
P. aeruginosa ATCC 27853 = assay: Single-point antibacterial screen
Hemolysis assay = format: cell-based, rabbit; details: rabbit, rabbit erythrocytes (2% w/w)
E. coli ATCC 25922 [9] = assay: Single-point antibacterial screen
[10] = system: E. coli S30 Extract System (prokaryotic translation); assay: Cell-free in vitro translation assay, prokaryotic system; format: biochemical; details: 1.25 µM–2.4 nM
K. pneumoniae NR-151410 = assay: Single-point antibacterial screen
E. faecalis ATCC 29212 = assay: Single-point antibacterial screen
S. flexneri 2457 NR-517 [11] = assay: Single-point antibacterial screen; format: cell-based, Shigella flexneri
A. baumannii ATCC 19606 = assay: Single-point antibacterial screen
MRSA A960649 NR-45914 [12] = assay: MIC by double-dilution method
[13] = system: mitochondrial A-site (RNA, rRNA) GGCGUCACCCCUUCGGGACAAGUCGCC; assay: fluorescent displacement assay; details: 50 mM Na+; F–NEO displaced (0.1 µM 1:1 complex), 10 mM HEPES, 0.4 mM EDTA, pH 7
E. coli ATCC 25922 [14] = assay: MIC by double-dilution method
E. coli A-site = details: concentration at which F–NEO emission is 50% of maximum
E. cloacae ATCC 13047 [15] = assay: MIC by double-dilution method
C. freundii 4747 CFAA [16] = assay: MIC by double-dilution method
MRSA ATCC 33591 [17] = assay: MIC by double-dilution method; details: MRSA 33591
mitochondrial A-site = details: F–NEO displacement
S. flexneri 2457 NR-517 [18] = assay: MIC by double-dilution method; format: cell-based, Shigella flexneri
[19] = system: E. coli A-site (RNA, rRNA) GGCGUCACACCUUCGGGUGAAGUCGCC; assay: fluorescent displacement assay; details: 50 mM Na+; F–NEO displaced (0.1 µM 1:1 complex), 10 mM HEPES, 0.4 mM EDTA, pH 7
[20] = system: rabbit reticulocyte lysate (eukaryotic translation); assay: Cell-free in vitro translation assay, eukaryotic system; format: biochemical; details: 4.2 µM to 5 nM
rabbit erythrocytes = assay: Hemolysis assay; format: cell-based; details: 100 µM
[21] = system: L. monocytogenes ATCC 19115; assay: MIC by double-dilution method
P. mirabilis HM-752 [22] = assay: MIC by double-dilution method
S. marcescens ATCC 13880 [23] = assay: MIC by double-dilution method
[24] = system: S. epidermidis ATCC 12384; assay: MIC by double-dilution method
[25] = system: human cytosolic A-site (RNA, rRNA) GGCGUCGCUCCUUCGGGAAAAGUCGCC; assay: fluorescent displacement assay; details: 50 mM Na+; F–NEO displaced (0.1 µM 1:1 complex), 10 mM HEPES, 0.4 mM EDTA, pH 7
human cytosolic A-site = details: F–NEO displacement

In the case of `NCc1ccc2c(c1)C(=O)c1ccccc1C2=O` [AMA], the inhibition at 6.3 µM ([1]; Staphylococcus epidermidis, ATCC12384, read-out: Inhibition of bacterial growth) is reported as 0%, the inhibition at 6.3 µM (MRSA ATCC 33591 [2]; Staphylococcus aureus, ATCC33591|MRSA, read-out: Inhibition of bacterial growth) is reported as 0% and the inhibition at 6.3 µM (E. cloacae ATCC 13047 [3]; Enterobacter cloacae, ATCC13047, read-out: Inhibition of bacterial growth) is reported as 0%. It also gave an inhibition at 6.3 µM (MRSA A960649 NR-45914 [4]; Staphylococcus aureus, MRSA, read-out: Inhibition of bacterial growth) of 0%, an inhibition at 6.3 µM (P. mirabilis HM-752 [5]; Proteus mirabilis, HM752, read-out: Inhibition of bacterial growth) of 19% and an inhibition at 6.3 µM (S. marcescens ATCC 13880 [6]; Serratia marcescens, ATCC13880, read-out: Inhibition of bacterial growth) of 0%. For the same compound, the inhibition at 6.3 µM ([7]; Listeria monocytogenes, ATCC19115, 48 h, read-out: Inhibition of bacterial growth) was 37%, the inhibition at 6.3 µM (C. freundii 4747 CFAA [8]; Citrobacter freundii, 4747CFAA, read-out: Inhibition of bacterial growth) was 4% and the inhibition at 6.3 µM (P. aeruginosa ATCC 27853; Pseudomonas aeruginosa, ATCC27853, read-out: Inhibition of bacterial growth) was 5%. The hemolysis at 1 h, 100 µM (Hemolysis assay) was 10 ± 4.6%, the inhibition at 6.3 µM (E. coli ATCC 25922 [9]; Escherichia coli, ATCC25922, read-out: Inhibition of bacterial growth) was 2% and the “Inhibition of prokaryotic translation (in words)” value [10] was “did not inhibit in vitro translation”. It also gave an inhibition at 6.3 µM (K. pneumoniae NR-151410; Klebsiella pneumoniae, NR151410, read-out: Inhibition of bacterial growth) of 0%, an inhibition at 6.3 µM (E. faecalis ATCC 29212; Enterococcus faecalis, ATCC29212, read-out: Inhibition of bacterial growth) of 27% and an inhibition at 6.3 µM (S. flexneri 2457 NR-517 [11]; Shigella flexneri, 2457NR517, read-out: Inhibition of bacterial growth) of 9%. It also gave an inhibition at 6.3 µM (A. baumannii ATCC 19606; Acinetobacter baumannii, ATCC19606, read-out: Inhibition of bacterial growth) of 0%.
With `NC[C@@H]1O[C@H](O[C@H]2[C@@H](O)[C@H](O[C@@H]3[C@@H](O)[C@H](N)C[C@H](N)[C@H]3O[C@H]3O[C@H](CN)[C@@H](O)[C@H](O)[C@H]3N)O[C@@H]2CO)[C@H](N)[C@@H](O)[C@@H]1O` [NEO, neomycin] the MIC (MRSA A960649 NR-45914 [12]) was 400 µM (≈ 246 µg/mL), the “Inhibition of bacterial growth” value ([1]; S. epidermidis, 6.3 µM) was 95% and the IC50 [13] was 87.1 ± 8.3 nM. The “Inhibition of bacterial growth” value (MRSA ATCC 33591 [2]; MRSA 33591, 6.3 µM) was 0%, the “Inhibition of bacterial growth” value (E. cloacae ATCC 13047 [3]; E. cloacae, 6.3 µM) was 100% and the MIC (E. coli ATCC 25922 [14]) was 1.56 µM (≈ 0.959 µg/mL). For the same compound, the “Inhibition of bacterial growth” value (MRSA A960649 NR-45914 [4]; MRSA A960649, 6.3 µM) was 0%, the IC50 (E. coli A-site) was 87.3 ± 5.9 nM and the MIC (E. cloacae ATCC 13047 [15]) was 3.25 µM (≈ 2 µg/mL). For the same compound, the MIC (C. freundii 4747 CFAA [16]) was 0.78 µM (≈ 0.479 µg/mL), the “Inhibition of bacterial growth” value (P. mirabilis HM-752 [5]; P. mirabilis, 6.3 µM) was 96% and the MIC (MRSA ATCC 33591 [17]) was 400 µM (≈ 246 µg/mL). For the same compound, the “Inhibition of bacterial growth” value (S. marcescens ATCC 13880 [6]; S. marcescens, 6.3 µM) was 100%, the IC50 (mitochondrial A-site) was 87.1 ± 8.3 nM and the “Inhibition of bacterial growth” value ([7]; L. monocytogenes, 6.3 µM, 48 h incubation) was 100%. The “Inhibition of bacterial growth” value (C. freundii 4747 CFAA [8]; C. freundii, 6.3 µM) was 97%, the “Inhibition of bacterial growth” value (P. aeruginosa ATCC 27853; P. aeruginosa, 6.3 µM) was 11% and the MIC (S. flexneri 2457 NR-517 [18]) was 6.3 µM (≈ 3.87 µg/mL). The IC50 [19] was 87.3 ± 5.9 nM, the “Inhibition of eukaryotic translation” value [20] was “inhibition of translation is not observed” and the “% hemolysis” value (rabbit erythrocytes) was 7.0 ± 0.4%. For the same compound, the “Inhibition of bacterial growth” value (E. coli ATCC 25922 [9]; E. coli, 6.3 µM) was 100%, the MIC [21] was 1.6 µM (≈ 0.983 µg/mL) and the “Inhibition of bacterial growth” value (K. pneumoniae NR-151410; K. pneumoniae, 6.3 µM) was 0%. The MIC (P. mirabilis HM-752 [22]) was 6.3 µM (≈ 3.87 µg/mL), the MIC (S. marcescens ATCC 13880 [23]) was 3.2 µM (≈ 1.97 µg/mL) and the “Inhibition of bacterial growth” value (E. faecalis ATCC 29212; E. faecalis, 6.3 µM) was 39%. The MIC [24] was 1.6 µM (≈ 0.983 µg/mL), the IC50 [25] was 76.5 ± 13.2 nM and the “Inhibition of bacterial growth” value (S. flexneri 2457 NR-517 [11]; S. flexneri, 6.3 µM) was 100%. The “Inhibition of bacterial growth” value (A. baumannii ATCC 19606; A. baumannii, 6.3 µM) was 91% and the IC50 (human cytosolic A-site) was 76.5 ± 13.2 nM.
In the case of Triton X-100, the “% hemolysis” value (rabbit erythrocytes) is reported as 100.0%.
